# Calls of active or inactive are those of the source. The rule behind the calls is not given here.
# Assays:
# Assay in all cases: PubChem AID 651978
# ESD = conditions: BW5147 mouse T-cell proteome, ABPP-SILAC LC-MS ratio, at 1 µM, hits give low values
# APEH = conditions: BW5147 mouse T-cell proteome, ABPP-SILAC LC-MS ratio, at 1 µM, hits give low values
# LYPLA2 = conditions: BW5147 mouse T-cell proteome, ABPP-SILAC LC-MS ratio, at 1 µM, hits give low values
# [1] = biological target: Monoacylglycerol lipase ABHD6 (Mus musculus) (UniProt Q8R2Y0); conditions: BW5147 mouse T-cell proteome, ABPP-SILAC LC-MS ratio, at 1 µM, hits give low values
# Sequence of Monoacylglycerol lipase ABHD6 (Mus musculus) (Q8R2Y0 whole entry, looked up): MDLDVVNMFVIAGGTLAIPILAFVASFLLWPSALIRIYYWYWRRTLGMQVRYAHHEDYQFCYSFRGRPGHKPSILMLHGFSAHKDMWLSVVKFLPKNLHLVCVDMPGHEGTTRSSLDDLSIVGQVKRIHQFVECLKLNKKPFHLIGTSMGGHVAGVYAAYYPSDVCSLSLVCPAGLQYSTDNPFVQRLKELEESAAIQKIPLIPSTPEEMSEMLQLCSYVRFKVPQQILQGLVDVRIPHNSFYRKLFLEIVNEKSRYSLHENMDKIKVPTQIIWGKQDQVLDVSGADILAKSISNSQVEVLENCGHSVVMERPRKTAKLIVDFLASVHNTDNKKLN
# [2] = biological target: Acyl-protein thioesterase 1 (Mus musculus) (UniProt P97823); conditions: BW5147 mouse T-cell proteome, ABPP-SILAC LC-MS ratio; LYPLA1; at 1 µM; hits give low values
# Sequence of Acyl-protein thioesterase 1 (Mus musculus) (P97823 whole entry, looked up): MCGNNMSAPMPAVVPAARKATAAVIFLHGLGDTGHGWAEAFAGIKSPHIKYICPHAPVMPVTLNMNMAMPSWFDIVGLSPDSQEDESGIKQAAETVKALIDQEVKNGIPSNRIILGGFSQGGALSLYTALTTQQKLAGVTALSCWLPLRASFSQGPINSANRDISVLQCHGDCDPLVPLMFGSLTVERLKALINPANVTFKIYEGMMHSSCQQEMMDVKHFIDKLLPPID
# DPP7 = conditions: BW5147 mouse T-cell proteome, ABPP-SILAC LC-MS ratio, at 1 µM, hits give low values
# [3] = biological target: sn-1-specific diacylglycerol lipase ABHD11 (Mus musculus) (UniProt Q8K4F5); conditions: BW5147 mouse T-cell proteome, ABPP-SILAC LC-MS ratio, at 1 µM, hits give low values
# Sequence of sn-1-specific diacylglycerol lipase ABHD11 (Mus musculus) (Q8K4F5 whole entry, looked up): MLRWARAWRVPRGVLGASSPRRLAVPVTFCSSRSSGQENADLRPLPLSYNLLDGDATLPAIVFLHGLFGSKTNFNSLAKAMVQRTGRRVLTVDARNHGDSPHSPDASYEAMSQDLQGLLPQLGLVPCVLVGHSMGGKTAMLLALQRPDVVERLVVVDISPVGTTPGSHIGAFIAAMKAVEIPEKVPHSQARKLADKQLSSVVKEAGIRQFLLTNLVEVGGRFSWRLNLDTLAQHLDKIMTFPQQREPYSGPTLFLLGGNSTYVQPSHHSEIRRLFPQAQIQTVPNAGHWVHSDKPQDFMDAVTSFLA
# LIPA = conditions: BW5147 mouse T-cell proteome, ABPP-SILAC LC-MS ratio, at 1 µM, hits give low values
# PAFAH1B2 = conditions: BW5147 mouse T-cell proteome, ABPP-SILAC LC-MS ratio, at 1 µM, hits give low values
# LACTB = conditions: BW5147 mouse T-cell proteome, ABPP-SILAC LC-MS ratio, at 1 µM, hits give low values
# ACOT1 = conditions: BW5147 mouse T-cell proteome, ABPP-SILAC LC-MS ratio, at 1 µM, hits give low values
# SIAE = conditions: BW5147 mouse T-cell proteome, ABPP-SILAC LC-MS ratio, at 1 µM, hits give low values
# AADACL1 = conditions: BW5147 mouse T-cell proteome, ABPP-SILAC LC-MS ratio, at 1 µM, hits give low values
# ACOT2 = conditions: BW5147 mouse T-cell proteome, ABPP-SILAC LC-MS ratio, at 1 µM, hits give low values
# [4] = biological target: Prolyl endopeptidase (Mus musculus) (UniProt Q9QUR6); conditions: BW5147 mouse T-cell proteome, ABPP-SILAC LC-MS ratio; PREP; at 1 µM; hits give low values
# Sequence of Prolyl endopeptidase (Mus musculus) (Q9QUR6 whole entry, looked up): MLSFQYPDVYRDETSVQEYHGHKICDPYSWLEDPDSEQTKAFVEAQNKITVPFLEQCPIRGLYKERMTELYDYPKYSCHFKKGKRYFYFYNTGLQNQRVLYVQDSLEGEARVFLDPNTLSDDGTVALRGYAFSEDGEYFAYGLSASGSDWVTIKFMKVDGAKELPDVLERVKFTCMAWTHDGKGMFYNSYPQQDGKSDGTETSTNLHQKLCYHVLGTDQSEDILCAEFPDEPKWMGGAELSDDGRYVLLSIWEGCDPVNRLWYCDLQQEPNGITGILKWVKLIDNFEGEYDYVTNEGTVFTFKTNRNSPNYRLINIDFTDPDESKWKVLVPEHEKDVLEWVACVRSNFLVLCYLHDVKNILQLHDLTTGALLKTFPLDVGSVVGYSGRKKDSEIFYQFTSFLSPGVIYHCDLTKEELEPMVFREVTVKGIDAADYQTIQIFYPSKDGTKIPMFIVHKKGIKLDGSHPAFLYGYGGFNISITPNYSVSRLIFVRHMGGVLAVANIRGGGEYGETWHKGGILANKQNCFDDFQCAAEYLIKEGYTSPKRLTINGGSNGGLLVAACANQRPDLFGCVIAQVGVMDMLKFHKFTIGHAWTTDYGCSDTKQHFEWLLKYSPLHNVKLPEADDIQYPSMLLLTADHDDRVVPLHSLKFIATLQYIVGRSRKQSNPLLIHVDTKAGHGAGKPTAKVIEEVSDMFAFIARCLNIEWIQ
# FASN = conditions: BW5147 mouse T-cell proteome, ABPP-SILAC LC-MS ratio, at 1 µM, hits give low values
# [5] = biological target: Palmitoyl-protein thioesterase ABHD10, mitochondrial (Mus musculus) (UniProt Q6PE15); conditions: BW5147 mouse T-cell proteome, ABPP-SILAC LC-MS ratio, at 1 µM, hits give low values
# Sequence of Palmitoyl-protein thioesterase ABHD10, mitochondrial (Mus musculus) (Q6PE15 whole entry, looked up): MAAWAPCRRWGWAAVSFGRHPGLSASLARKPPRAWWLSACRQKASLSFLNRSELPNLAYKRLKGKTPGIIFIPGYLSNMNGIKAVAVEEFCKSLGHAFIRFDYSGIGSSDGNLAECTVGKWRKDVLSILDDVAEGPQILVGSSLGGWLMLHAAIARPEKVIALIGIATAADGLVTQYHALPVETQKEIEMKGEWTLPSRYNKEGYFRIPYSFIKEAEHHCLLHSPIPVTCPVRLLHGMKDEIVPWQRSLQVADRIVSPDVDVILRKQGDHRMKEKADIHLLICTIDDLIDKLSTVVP
# DPP4 = conditions: BW5147 mouse T-cell proteome, ABPP-SILAC LC-MS ratio, at 1 µM, hits give low values
# PREPL = conditions: BW5147 mouse T-cell proteome, ABPP-SILAC LC-MS ratio, at 1 µM, hits give low values
# FAAH = conditions: BW5147 mouse T-cell proteome, ABPP-SILAC LC-MS ratio, at 1 µM, hits give low values
# DPP8 = conditions: BW5147 mouse T-cell proteome, ABPP-SILAC LC-MS ratio, at 1 µM, hits give low values
# [6] = biological target: Platelet-activating factor acetylhydrolase 2, cytoplasmic (Mus musculus) (UniProt Q8VDG7); conditions: BW5147 mouse T-cell proteome, ABPP-SILAC LC-MS ratio; PAFAH2; at 1 µM; hits give low values
# Sequence of Platelet-activating factor acetylhydrolase 2, cytoplasmic (Mus musculus) (Q8VDG7 whole entry, looked up): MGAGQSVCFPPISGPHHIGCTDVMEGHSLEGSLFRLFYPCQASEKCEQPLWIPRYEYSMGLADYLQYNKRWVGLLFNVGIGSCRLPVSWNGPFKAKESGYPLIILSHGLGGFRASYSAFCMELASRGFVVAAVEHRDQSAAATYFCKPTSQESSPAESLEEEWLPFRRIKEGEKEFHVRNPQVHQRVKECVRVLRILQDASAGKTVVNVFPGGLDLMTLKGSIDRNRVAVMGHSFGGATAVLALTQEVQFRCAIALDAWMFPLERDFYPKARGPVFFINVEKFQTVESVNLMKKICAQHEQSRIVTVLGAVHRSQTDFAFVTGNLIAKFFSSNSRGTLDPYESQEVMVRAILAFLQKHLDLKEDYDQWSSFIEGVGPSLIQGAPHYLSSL
# PAFAH1B3 = conditions: BW5147 mouse T-cell proteome, ABPP-SILAC LC-MS ratio, at 1 µM, hits give low values
# PNPLA6 = conditions: BW5147 mouse T-cell proteome, ABPP-SILAC LC-MS ratio, at 1 µM, hits give low values
# DPP9 = conditions: BW5147 mouse T-cell proteome, ABPP-SILAC LC-MS ratio, at 1 µM, hits give low values
# CTSA = conditions: BW5147 mouse T-cell proteome, ABPP-SILAC LC-MS ratio, at 1 µM, hits give low values
# PNPLA7 = conditions: BW5147 mouse T-cell proteome, ABPP-SILAC LC-MS ratio, at 1 µM, hits give low values
# ABHD12 = conditions: BW5147 mouse T-cell proteome, ABPP-SILAC LC-MS ratio, at 1 µM, hits give low values
# PRCP = conditions: BW5147 mouse T-cell proteome, ABPP-SILAC LC-MS ratio, at 1 µM, hits give low values
compound,measurement,setting,value
O=C(CN1CCN(C(=O)c2ccco2)CC1)Nc1cc(C(F)(F)F)ccc1Cl,light/heavy ratio (remaining activity),ESD,1.05 (inactive)
same,light/heavy ratio (remaining activity),APEH,1.06 (inactive)
same,light/heavy ratio (remaining activity),LYPLA2,0.84 (inactive)
same,light/heavy ratio (remaining activity),[1],1.18 (inactive)
same,light/heavy ratio (remaining activity),[2],0.03
same,light/heavy ratio (remaining activity),DPP7,0.87 (inactive)
same,light/heavy ratio (remaining activity),[3],0.74 (inactive)
same,light/heavy ratio (remaining activity),LIPA,1.12 (inactive)
same,light/heavy ratio (remaining activity),PAFAH1B2,1.04 (inactive)
same,light/heavy ratio (remaining activity),LACTB,1.23 (inactive)
same,light/heavy ratio (remaining activity),ACOT1,1.22 (inactive)
same,light/heavy ratio (remaining activity),SIAE,0.98 (inactive)
same,light/heavy ratio (remaining activity),AADACL1,1.05 (inactive)
same,light/heavy ratio (remaining activity),ACOT2,1.08 (inactive)
same,light/heavy ratio (remaining activity),[4],1.08 (inactive)
same,light/heavy ratio (remaining activity),FASN,1.1 (inactive)
same,light/heavy ratio (remaining activity),[5],0.76 (inactive)
same,light/heavy ratio (remaining activity),DPP4,1.24 (inactive)
same,light/heavy ratio (remaining activity),PREPL,0.95 (inactive)
same,light/heavy ratio (remaining activity),FAAH,1.19 (inactive)
same,light/heavy ratio (remaining activity),DPP8,1.08 (inactive)
same,light/heavy ratio (remaining activity),[6],1.3 (inactive)
same,light/heavy ratio (remaining activity),PAFAH1B3,1.04 (inactive)
same,light/heavy ratio (remaining activity),PNPLA6,1.2 (inactive)
same,light/heavy ratio (remaining activity),DPP9,1.06 (inactive)
same,light/heavy ratio (remaining activity),CTSA,1.11 (inactive)
same,light/heavy ratio (remaining activity),PNPLA7,1.29 (inactive)
same,light/heavy ratio (remaining activity),ABHD12,1.29 (inactive)
same,light/heavy ratio (remaining activity),PRCP,0.97 (inactive)

# Reference: PubChem BioAssay AID651978 (The Scripps Research Institute Molecular Screening Center, 2013)
